PMC11536076, “Intraoperative Guidance of Pancreatic Cancer Resection Using a Toll-like Receptor 2–Targeted Fluorescence Molecular Imaging Agent” (Cancer Research Communications, 2024)

Assays:
[1] = design: method as in LI-COR product sheet; conditions: unconjugated dye in water; ref LI-COR product sheet; cited from earlier work
[2] = Absorbance and fluorescence emission spectra; assay type: physicochemical
Experimental: Absorbance and fluorescence emission spectra were generated using a Tecan Infinite M-1000 PRO multimode microplate reader. Solutions of TLR2L-800 were prepared from a 0.367 mmol/L stock solution in DMSO. Aliquots (2 µL) of TLR2L-800 were spotted on each well of a Tecan NanoQuant plate. The absorbance spectrum of TLR2L-800 (183.5 µmol/L in PBS) was acquired from 230 to 1,000 nm with a wavelength step size of 2 nm. The emission spectrum of TLR2L-800 (0.367 mmol/L in DMSO) was acquired with an excitation wavelength starting from 275 nm and emission wavelengths from 450 to 850 nm with an emission wavelength step size of 2 nm and bandwidth of 5 nm.

In the case of CC1(C)C(=CC=C2CCCC(C=CC3=[N+](CCCCCC(=O)[O-])c4ccc(S(=O)(=O)[O-])cc4C3(C)C)=C2Oc2ccc(S(=O)(=O)[O-])cc2)N(CCCCS(=O)(=O)[O-])c2ccc(S(=O)(=O)[O-])cc21.[Na+].[Na+].[Na+].[Na+] [IRDye800CW], the absorbance maxima [1] is given as 774 nm, the emission maxima [1] is given as 789 nm and the Stokes shift [2] is given as 15 nm.
